In ChEMBL document CHEMBL6121004, “Design, synthesis, and biological evaluation of Ponatinib-based N-Phenylpyrimidine-2-amine derivatives as novel fibroblast growth factor receptor 4 (FGFR4) selective inhibitors” (Eur J Med Chem, 2025):
Calls of active or inactive are those of the source. The rule behind the calls is not given here.

Assays:
[1] = GSH reactivity in potassium phosphate buffer at pH 7.4 assessed as half life at 1 uM measured at 2 to 1440 mins by LC-MS/MS analysis; type: physicochemical; conditions: potassium phosphate buffer with GSH, time 2-1440 min
[2] = target: Platelet-derived growth factor receptor alpha (Homo sapiens) (UniProt P16234); test: Inhibition of PDGFRalpha (unknown origin) at 1 uM relative to control
[3] = system: Huh-7; test: Induction of apoptosis in human Huh-7 cells assessed as viable cells at 0.5 uM incubated for 48 hrs by annexin V-FITC/propidium iodide staining based flow cytometry analysis (reference value: 84.91%); type: functional; conditions: read-out: Activity
[4] = system: Huh-7; test: Induction of apoptosis in human Huh-7 cells assessed as early apoptotic cells at 1 uM incubated for 48 hrs by annexin V-FITC/propidium iodide staining based flow cytometry analysis (reference value: 4.59%); type: functional
[5] = system: Huh-7; test: Induction of apoptosis in human Huh-7 cells assessed as viable cells at 0.1 uM incubated for 48 hrs by annexin V-FITC/propidium iodide staining based flow cytometry analysis (reference value: 84.91%); type: functional; conditions: read-out: Activity
[6] = system: Hep 3B2; test: Induction of apoptosis in human Hep3B cells assessed as necrotic cells at 0.5 uM incubated for 48 hrs by annexin V-FITC/propidium iodide staining based flow cytometry analysis (reference value: 5.20%); type: functional
[7] = system: Huh-7; test: Downregulation of FAK level in human Huh-7 cells at 0.25 to 1 uM incubated for 48 hrs by Western blot analysis; type: functional, cell-based; conditions: dose 0.25-1 µM
[8] = system: Huh-7; test: Antiproliferative activity against human Huh-7 cells assessed as cell viability at […] pre-incubated with compound for 12 hrs followed by compound washout and measured after 4 days; type: functional, cell-based; conditions: dose 1.6 µM
[9] = AUC (0 to t) in BALB/c male mouse at 10 mg/kg, po measured upto 24 hrs by LC-MS/MS analysis; type: ADME, organism-based; conditions: in vivo
[10] = Clearance in BALB/c male mouse at 1 mg/kg, iv measured upto 24 hrs by LC-MS/MS analysis; type: ADME, organism-based; conditions: in vivo
[11] = MRT (0 to t) in BALB/c male mouse at 1 mg/kg, iv measured upto 24 hrs by LC-MS/MS analysis; type: ADME, organism-based; conditions: in vivo
[12] = MRT (0 to t) in BALB/c male mouse at 10 mg/kg, po measured upto 24 hrs by LC-MS/MS analysis; type: ADME, organism-based; conditions: in vivo
[13] = Half life in BALB/c male mouse at 10 mg/kg, po measured upto 24 hrs by LC-MS/MS analysis; type: ADME, organism-based; conditions: in vivo
[14] = Tmax in BALB/c male mouse at 10 mg/kg, po measured upto 24 hrs by LC-MS/MS analysis; type: ADME, organism-based; conditions: in vivo
[15] = system: Huh-7; test: Antitumor activity against human Huh-7 cells xenografted in nude mouse assessed as tumor growth inhibition at 12.5 mg/kg, ip administered for 15 days; type: functional; conditions: Huh-7, 360 h, time 15 day, read-out: TGI
[16] = system: Huh-7; test: Antitumor activity against human Huh-7 cells xenografted in nude mouse assessed as tumor growth inhibition at 25 mg/kg, ip administered for 15 days; type: functional; conditions: Huh-7, 360 h, time 15 day, read-out: TGI
[17] = system: Huh-7; test: Antitumor activity against human Huh-7 cells xenografted in nude mouse assessed as tumor growth inhibition at 50 mg/kg, ip administered for 15 days; type: functional; conditions: Huh-7, 360 h, time 15 day, read-out: TGI
[18] = Toxicity in male nude mouse implanted with human Huh-7 cells assessed as liver damage at 12.5 to 50 mg/kg, ip administered for 15 days; type: organism-based; conditions: in vivo, 360 h, dose 12.5-50 mg/kg, time 15 day
[19] = Toxicity in male nude mouse implanted with human Huh-7 cells assessed as heart damage at 12.5 to 50 mg/kg, ip administered for 15 days; type: organism-based; conditions: in vivo, 360 h, dose 12.5-50 mg/kg, time 15 day
[20] = system: Huh-7; test: cells; conditions: Homo sapiens, Huh-7, 72 h
Description: Antiproliferative activity against human Huh-7 cells assessed as inhibition of cell proliferation incubated for 72 hrs by MTT assay

[21] = system: MDA-MB-231; test: cells; conditions: Homo sapiens, MDA-MB-231, 72 h
Description: Antiproliferative activity against human MDA-MB-231 cells assessed as inhibition of cell proliferation incubated for 72 hrs by MTT assay

Platelet-derived growth factor receptor alpha (Homo sapiens), sequence (P16234 whole entry): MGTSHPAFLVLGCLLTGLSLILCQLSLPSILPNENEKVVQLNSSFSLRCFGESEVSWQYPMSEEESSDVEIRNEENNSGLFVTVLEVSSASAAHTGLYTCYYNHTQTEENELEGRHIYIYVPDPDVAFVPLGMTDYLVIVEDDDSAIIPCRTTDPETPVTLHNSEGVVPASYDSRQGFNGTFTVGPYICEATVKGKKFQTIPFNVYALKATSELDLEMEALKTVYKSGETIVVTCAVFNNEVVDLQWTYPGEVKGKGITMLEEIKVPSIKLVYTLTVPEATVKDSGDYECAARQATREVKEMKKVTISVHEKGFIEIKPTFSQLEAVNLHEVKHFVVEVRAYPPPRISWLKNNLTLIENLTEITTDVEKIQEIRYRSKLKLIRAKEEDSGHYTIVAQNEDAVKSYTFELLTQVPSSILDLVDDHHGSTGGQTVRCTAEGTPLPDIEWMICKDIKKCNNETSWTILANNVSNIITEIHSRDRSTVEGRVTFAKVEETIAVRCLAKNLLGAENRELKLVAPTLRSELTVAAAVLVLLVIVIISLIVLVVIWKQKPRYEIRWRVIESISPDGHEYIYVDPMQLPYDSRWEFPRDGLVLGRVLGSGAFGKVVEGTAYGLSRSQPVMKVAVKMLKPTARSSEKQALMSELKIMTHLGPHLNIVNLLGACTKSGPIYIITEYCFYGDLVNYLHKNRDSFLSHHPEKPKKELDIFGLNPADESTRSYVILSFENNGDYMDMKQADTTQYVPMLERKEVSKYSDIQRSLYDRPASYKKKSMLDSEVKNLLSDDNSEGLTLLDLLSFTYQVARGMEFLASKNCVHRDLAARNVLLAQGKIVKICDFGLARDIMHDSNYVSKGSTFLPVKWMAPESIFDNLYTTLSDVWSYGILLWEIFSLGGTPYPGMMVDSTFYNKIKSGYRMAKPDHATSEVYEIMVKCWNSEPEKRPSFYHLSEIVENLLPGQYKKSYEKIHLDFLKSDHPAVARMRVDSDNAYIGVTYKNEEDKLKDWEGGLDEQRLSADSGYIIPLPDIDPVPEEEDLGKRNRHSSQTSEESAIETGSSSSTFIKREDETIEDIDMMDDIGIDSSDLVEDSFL

C=CC(=O)Nc1cccc(C)c1Nc1ncc(C#Cc2cccc(C(=O)Nc3ccc(CN4CCN(C)CC4)c(C(F)(F)F)c3)c2)cn1
half-life at 1 µM [1]: 1.35 h
inhibition [2]: < 70%
viability at 0.5 µM [3]: 75.3%
Activity [4]: 2.12%
viability at 0.1 µM [5]: 88.8%
Activity [6]: 6.93%
Activity [7]: Active
Activity [8]: Active
AUC(0-t) at 24 h [9]: 318 ng·h/mL
clearance [10]: 67.9 mL/min/kg
MRT last at 24 h [11]: 0.77 h
MRT last at 24 h [12]: 2.65 h
half-life [13]: 1.4 h
Tmax [14]: 1 h
inhibition in vivo at 12.5 mg/kg [15]: 34.9%
inhibition in vivo at 25 mg/kg [16]: 50.3%
inhibition in vivo at 50 mg/kg [17]: 69.8%
Activity [18]: Non-toxic
Activity [19]: Non-toxic
IC50 [20]: 150 nM
IC50 [21]: 5600 nM
